PubChem BioAssay (NCI)
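Protocol summary: plate cells (96-well), add compound at 5 concentrations, incubate 48 h, interpolate endpoints linearly. Here, GI50 denotes the concentration required for 50% inhibition of growth. TGI is the concentration that stops growth completely.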

Experiments:
Experiment in all cases: NCI tumour cell line growth inhibition, 48 h
[1] = system: NCI/ADR-RES ovarian
[2] = system: UO-31 renal
[3] = system: SF-539 CNS
[4] = system: SF-295 CNS
[5] = system: NCI-H522 lung
[6] = system: DU-145 prostate
[7] = system: HOP-62 NSCLC
[8] = system: OVCAR-3 ovarian
[9] = system: HCC-2998 colon
[10] = system: HS 578T breast
[11] = system: HCT-116 colon
[12] = system: UACC-257 melanoma
[13] = system: MDA-MB-435
[14] = system: CCRF-CEM leukemia
[15] = system: HOP-92 NSCLC
[16] = system: SNB-19 CNS
[17] = system: MCF7 breast
[18] = system: HCT-15 colon
[19] = system: ACHN renal
[20] = system: SF-268 CNS
[21] = system: RPMI-8226 leukemia
[22] = system: COLO 205 colon
[23] = system: SW-620 colon
[24] = system: OVCAR-5 ovarian
[25] = system: SK-MEL-28 melanoma
[26] = system: HT29 colon
[27] = system: CAKI-1 renal
[28] = system: UACC-62 melanoma
[29] = system: SR leukemia
[30] = system: HL-60(TB) leukemia
[31] = system: K-562 leukemia
[32] = system: T-47D breast
[33] = system: A549 NSCLC
[34] = system: M14 melanoma
[35] = system: KM12 colon
[36] = system: OVCAR-4 ovarian
[37] = system: OVCAR-8 ovarian
[38] = system: MOLT-4 leukemia
[39] = system: TK-10 renal
[40] = system: IGROV1 ovarian
[41] = system: NCI-H460 lung
[42] = system: EKVX NSCLC
[43] = system: PC-3 prostate
[44] = system: 786-0 renal
[45] = system: MDA-MB-231 breast
[46] = system: SK-MEL-5 melanoma
[47] = system: U251 CNS
[48] = system: SN12C renal
[49] = system: LOX IMVI melanoma
[50] = system: BT-549 breast
[51] = system: NCI-H226 lung
[52] = system: SK-MEL-2 melanoma
[53] = system: SNB-75 CNS
[54] = system: NCI-H23 lung
[55] = system: A498 renal

Compound: COc1ccc2c(c1)CCC1C2CCC2(C)C3=CC(O)CCC3CC12 (stereo not given)
- GI50 [1]: 16 µM
- TGI [1]: 34.5 µM
- GI50 [2]: 19.8 µM
- TGI [2]: 40.9 µM
- GI50 [3]: 18.3 µM
- TGI [3]: 34.7 µM
- GI50 [4]: 20.4 µM
- TGI [4]: 46.1 µM
- GI50 [5]: 14.3 µM
- TGI [5]: 31.5 µM
- GI50 [6]: 15.7 µM
- TGI [6]: 30.2 µM
- GI50 [7]: 19.6 µM
- TGI [7]: 34.4 µM
- GI50 [8]: 25.1 µM
- TGI [8]: 53.6 µM
- GI50 [9]: 14.3 µM
- TGI [9]: 27.4 µM
- GI50 [10]: 23.4 µM
- TGI [10]: 49.1 µM
- GI50 [11]: 15.7 µM
- TGI [11]: 29.6 µM
- GI50 [12]: 12.7 µM
- TGI [12]: 26.2 µM
- GI50 [13]: 15.3 µM
- TGI [13]: 35.4 µM
- GI50 [14]: 15.6 µM
- TGI [14]: 36.3 µM
- GI50 [15]: 22.6 µM
- TGI [15]: 45.2 µM
- GI50 [16]: 21.5 µM
- TGI [16]: 42.5 µM
- GI50 [17]: 24.8 µM
- TGI [17]: 50.5 µM
- GI50 [18]: 7.06 µM
- TGI [18]: 21.2 µM
- GI50 [19]: 20.1 µM
- TGI [19]: 34.7 µM
- GI50 [20]: 20.3 µM
- TGI [20]: 40.6 µM
- GI50 [21]: 16.7 µM
- TGI [21]: 43.9 µM
- GI50 [22]: 32.7 µM
- TGI [22]: 88.7 µM
- GI50 [23]: 14.4 µM
- TGI [23]: 30.1 µM
- GI50 [24]: 15.2 µM
- TGI [24]: 29.1 µM
- GI50 [25]: 21.8 µM
- TGI [25]: 51.5 µM
- GI50 [26]: 11 µM
- TGI [26]: 37.4 µM
- GI50 [27]: 21.9 µM
- TGI [27]: 45.5 µM
- GI50 [28]: 12.5 µM
- TGI [28]: 25 µM
- GI50 [29]: 14.3 µM
- TGI [29]: 37.5 µM
- GI50 [30]: 15.6 µM
- TGI [30]: 35.5 µM
- GI50 [31]: 13.1 µM
- TGI [31]: 35.5 µM
- GI50 [32]: 23 µM
- TGI [32]: 64.5 µM
- GI50 [33]: 14.7 µM
- TGI [33]: 31.6 µM
- GI50 [34]: 15.7 µM
- TGI [34]: 30.2 µM
- GI50 [35]: 19.8 µM
- TGI [35]: 40.1 µM
- GI50 [36]: 28 µM
- TGI [36]: 75.1 µM
- GI50 [37]: 18 µM
- TGI [37]: 36.7 µM
- GI50 [38]: 18.3 µM
- TGI [38]: 43.7 µM
- GI50 [39]: 21.2 µM
- TGI [39]: 43.2 µM
- GI50 [40]: 16.7 µM
- TGI [40]: 37.2 µM
- GI50 [41]: 19.4 µM
- TGI [41]: 40.7 µM
- GI50 [42]: 16.9 µM
- TGI [42]: 36.2 µM
- GI50 [43]: 15.2 µM
- TGI [43]: 31.1 µM
- GI50 [44]: 17.4 µM
- TGI [44]: 33.3 µM
- GI50 [45]: 17.6 µM
- TGI [45]: 34.8 µM
- GI50 [46]: 11.7 µM
- TGI [46]: 23.9 µM
- GI50 [47]: 14 µM
- TGI [47]: 27.4 µM
- GI50 [48]: 16.4 µM
- TGI [48]: 30.9 µM
- GI50 [49]: 15.4 µM
- TGI [49]: 31.8 µM
- GI50 [50]: 18.8 µM
- TGI [50]: 41.5 µM
- GI50 [51]: 18 µM
- TGI [51]: 40.7 µM
- GI50 [52]: 18.9 µM
- TGI [52]: 56.6 µM
- GI50 [53]: 43.5 µM
- TGI [53]: > 100 µM
- GI50 [54]: 15.8 µM
- TGI [54]: 30.1 µM
- GI50 [55]: 16.7 µM
- TGI [55]: 35.4 µM
